Experimental data reported in ChEMBL document CHEMBL1201862, “PubChem BioAssay data set” (2004).
Calls of active or inactive are those of the source. Cut-off read from the data, not from the text of the source, for most assays here: actives have a measured EC50 and inactives only a lower limit.

Columns and labels:
[1] = biological target: T1, RNA-binding protein pos-1 (Caenorhabditis elegans, UniProt G5EF15); assay: inhibitors of POS-1/mex-3 RNA binding, dose response, biochemical, fluorescence polarization (AID 1964);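 note: purified POS-1 fused to maltose binding protein made in E. coli; potency of compounds blocking POS-1 binding to fluorescent RNA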
T1 sequence (G5EF15 whole entry): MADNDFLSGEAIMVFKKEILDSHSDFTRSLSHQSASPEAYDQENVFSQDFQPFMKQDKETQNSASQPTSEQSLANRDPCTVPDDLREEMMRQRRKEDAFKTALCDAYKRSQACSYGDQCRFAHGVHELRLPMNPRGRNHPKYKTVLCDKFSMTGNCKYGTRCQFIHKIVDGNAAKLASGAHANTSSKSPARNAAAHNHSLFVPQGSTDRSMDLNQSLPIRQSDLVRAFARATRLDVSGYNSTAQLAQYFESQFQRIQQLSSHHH

[2] = biological target: T2, Zinc finger protein mex-5 (Caenorhabditis elegans, UniProt Q9XUB2); assay: MEX-5/TCR-2 RNA interaction inhibitors, dose response, biochemical, C. elegans, fluorescence polarization (AID 1960)
T2 sequence (Q9XUB2 whole entry): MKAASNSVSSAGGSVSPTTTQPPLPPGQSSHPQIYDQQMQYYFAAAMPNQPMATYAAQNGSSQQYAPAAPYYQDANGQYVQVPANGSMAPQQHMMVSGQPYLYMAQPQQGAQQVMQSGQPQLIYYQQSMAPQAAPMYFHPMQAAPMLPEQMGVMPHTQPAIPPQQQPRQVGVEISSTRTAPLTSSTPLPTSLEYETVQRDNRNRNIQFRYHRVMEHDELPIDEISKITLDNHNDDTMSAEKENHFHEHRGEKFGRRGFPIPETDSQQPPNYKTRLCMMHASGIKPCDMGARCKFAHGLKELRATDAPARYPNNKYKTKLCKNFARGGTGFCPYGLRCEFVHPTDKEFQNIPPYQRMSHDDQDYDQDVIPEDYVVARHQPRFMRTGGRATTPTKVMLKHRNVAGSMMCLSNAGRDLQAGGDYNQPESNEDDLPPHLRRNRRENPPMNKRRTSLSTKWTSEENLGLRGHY

INS1 = assay: beta cell apoptosis inhibitors, cytokine rescue, dose response, luminescence, retest (AID 449756); type: functional, cell-based; conditions: Rattus norvegicus;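 note: cell death triggered by IL-1 beta plus TNF-alpha plus IFN-gamma mixture; protective hits raise ATP signal compared with cytokine alone wells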
[3] = Luminescence Cell-Based Dose Retest to Confirm Inhibitors of Cancer Stem Cells. [Related pubchem assays (depositor defined):AID2717, AID2721]; type: functional; conditions: Homo sapiens
[4] = system: Streptococcus sp. 'group A'; assay: growth inhibition of control SK(-) GAS strain, dose response, counter-screen for streptokinase expression inhibitor project, luminescence, kanamycin, BacTiterGlo, confirmation (AID 1900); type: functional, organism-based
Streptokinase A = biological target: T3, Streptokinase A (Streptococcus pyogenes serotype M1, UniProt P10520); assay: S. pyogenes streptokinase expression inhibitors, potency, dose response, plasminogen activation absorbance, OD405 (AID 1914); type: functional, Streptococcus pyogenes M1 GAS;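 note: secreted streptokinase activity via plasminogen activation per viability signal from cell pellet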
T3 sequence (P10520 whole entry): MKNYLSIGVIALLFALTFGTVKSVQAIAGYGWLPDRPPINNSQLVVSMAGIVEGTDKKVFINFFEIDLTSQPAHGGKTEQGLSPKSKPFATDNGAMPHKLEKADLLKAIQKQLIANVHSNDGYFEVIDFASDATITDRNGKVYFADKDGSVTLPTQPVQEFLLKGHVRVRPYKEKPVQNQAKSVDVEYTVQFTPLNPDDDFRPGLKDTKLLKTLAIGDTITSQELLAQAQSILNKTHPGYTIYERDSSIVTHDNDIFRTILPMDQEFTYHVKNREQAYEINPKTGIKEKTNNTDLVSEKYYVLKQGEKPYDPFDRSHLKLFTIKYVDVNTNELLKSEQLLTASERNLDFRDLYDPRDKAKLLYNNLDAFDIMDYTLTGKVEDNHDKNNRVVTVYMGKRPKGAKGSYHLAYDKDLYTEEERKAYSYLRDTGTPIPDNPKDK

Streptococcus = assay: Group A Streptococcus viability loss, dose response, counter-screen for streptokinase expression inhibitor project, luminescence, BacTiterGlo (AID 1915); type: functional, organism-based;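 note: potency for reduction of bacterial viability or growth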
[5] = biological target: T4, Heat shock factor protein 1 (Mus musculus, UniProt P38532); assay: HSF1 potentiators in luciferase reporter cells, confirmation, cell-based, NIH3T3, luminescence, dose retest (AID 435004); type: functional;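 note: stress induced by proteasome inhibitor MG132 added 30 min after compound; luciferase reporter driven by HSF1 response element in NIH3T3 cells; actives raise luminescence as potentiators of the MG132 stress response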
T4 sequence (P38532 whole entry): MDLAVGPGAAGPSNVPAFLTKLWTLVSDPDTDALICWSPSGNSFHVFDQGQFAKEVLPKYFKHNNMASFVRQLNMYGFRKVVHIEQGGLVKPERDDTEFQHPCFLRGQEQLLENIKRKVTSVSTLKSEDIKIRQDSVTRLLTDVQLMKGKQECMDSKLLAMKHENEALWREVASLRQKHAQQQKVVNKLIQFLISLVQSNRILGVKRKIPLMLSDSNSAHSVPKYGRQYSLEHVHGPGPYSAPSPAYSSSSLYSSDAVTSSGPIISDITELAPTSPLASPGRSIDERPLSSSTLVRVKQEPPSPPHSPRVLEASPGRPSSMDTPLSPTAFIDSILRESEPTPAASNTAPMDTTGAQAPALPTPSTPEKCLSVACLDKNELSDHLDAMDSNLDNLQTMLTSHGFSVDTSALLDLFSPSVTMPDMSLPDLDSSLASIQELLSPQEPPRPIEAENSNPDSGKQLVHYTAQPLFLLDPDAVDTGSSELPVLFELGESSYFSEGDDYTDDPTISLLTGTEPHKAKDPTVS

[6] = inhibitors of intracellular T. cruzi replication, confirmation, NIH3T3 host cells, beta-gal luminescence (AID 2044); type: functional, cell-based;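 note: intracellular parasites grown in NIH/3T3 mouse fibroblasts as host cells; luminescent beta-galactosidase reporter signal from transgenic T. cruzi replicating inside host cells; inhibitors lower the luminescence signal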
[7] = cytotoxicity toward NIH3T3 fibroblasts, dose response, counter-screen, cell-based, ATP luminescence, mouse fibroblasts (AID 2010); type: functional;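 note: cells exposed to compound for about 90 hours before reading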
[8] = Luminescence Cell-Based Dose Confirmation HTS to Identify Activators of 5'UTR Stem-Loop Driven Alpha-Synuclein mRNA Translation in H4 Neuroglioblastoma Cells. [Related pubchem assays: 1829 (Project Summary), 1814 (Primary HTS)]; type: functional
[9] = Luminescence Cell-Based Dose Response HTS to Identify Activators of Luciferase Translation or Activity in H4 […] Cells. [Related pubchem assays: 1829 (Project Summary), 1814 (Primary HTS)]; type: functional
H4 = assay: Luminescence Cell-Based Dose Response HTS to Identify Activators of 5'UTR Stem-Loop Driven Prion Protein mRNA Translation in H4 Neuroglioblastoma Cells. [Related pubchem assays: 1829 (Project Summary), 1814 (Primary HTS)]; type: functional; conditions: Homo sapiens
[10] = biological target: T5, Corticotropin-releasing factor receptor 2/Corticotropin-releasing factor-binding protein (Homo sapiens, UniProt P24387+Q13324); assay: activators of CRF receptor 2 with binding protein – uHTS hits, confirmation (AID 602473); type: functional; conditions: read-out: EC50_Mean
T5 sequence (Q13324 whole entry): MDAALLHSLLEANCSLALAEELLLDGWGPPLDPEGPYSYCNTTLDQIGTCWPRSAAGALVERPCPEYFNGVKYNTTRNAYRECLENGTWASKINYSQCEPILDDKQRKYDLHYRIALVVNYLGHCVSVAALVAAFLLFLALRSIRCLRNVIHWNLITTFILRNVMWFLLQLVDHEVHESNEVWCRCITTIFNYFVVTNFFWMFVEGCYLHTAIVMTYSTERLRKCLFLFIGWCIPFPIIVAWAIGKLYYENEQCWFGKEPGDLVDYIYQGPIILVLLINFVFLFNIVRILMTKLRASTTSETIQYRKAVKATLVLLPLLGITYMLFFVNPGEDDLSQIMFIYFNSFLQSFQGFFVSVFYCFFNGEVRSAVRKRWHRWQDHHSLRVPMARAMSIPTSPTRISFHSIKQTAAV
T5 sequence (P24387 whole entry): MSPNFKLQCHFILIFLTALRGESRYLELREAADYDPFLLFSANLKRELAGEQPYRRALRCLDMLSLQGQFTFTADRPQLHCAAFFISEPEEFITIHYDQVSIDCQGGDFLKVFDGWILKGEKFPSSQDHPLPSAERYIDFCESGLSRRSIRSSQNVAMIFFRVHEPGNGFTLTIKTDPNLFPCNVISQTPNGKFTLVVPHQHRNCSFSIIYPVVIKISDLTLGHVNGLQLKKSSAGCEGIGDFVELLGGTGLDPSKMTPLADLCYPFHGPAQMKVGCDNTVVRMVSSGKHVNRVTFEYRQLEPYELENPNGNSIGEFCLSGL

## Oc1ccc(C2=CSC3=NCCN23)cc1O
[1]
  EC50: 70.6 µM (active)
[2]
  EC50: 18.6 µM (active)

## CN1/C(=C\C(=S)NC(=O)c2ccc([N+](=O)[O-])cc2)C(C)(C)c2ccccc21
INS1
  AC50: 22.2 µM (active)

## COc1ccc(C)cc1Nc1n[n+](-c2ccccc2)c(-c2c(OC)ccc3ccccc23)s1
[3]
  AC50: 4.84 µM (active)
INS1
  AC50: 5.74 µM (active)

## Cc1ccc(CSc2nc3sc(C)c(C)c3c(=O)n2Cc2ccco2)cc1
[4]
  EC50: > 150 µM (not active)
Streptokinase A
  EC50: 99.5 µM (active)
Streptococcus
  EC50: > 150 µM (not active)
[3]
  AC50: 23.3 µM (active)

## Cc1ccc(-c2csc(NC(=O)c3cccc([N+](=O)[O-])c3)n2)cc1
[5]
  EC50: > 260 µM (inactive)

## Cc1c(OCC(=O)NCCCn2ccnc2)ccc2c3c(c(=O)oc12)CCCC3
[5]
  EC50: > 260 µM (inactive)

## O=C(Nc1cccc(Cl)c1)Nc1sccc1-c1nc2ccccc2s1
[3]
  AC50: 39 µM (active)

## CCOC(=O)c1cnc(-n2nc(C)cc2C)nc1Nc1ccc(N(C)C)cc1
[6]
  EC50: 1.12 µM (active)
[7]
  EC50: > 30 µM (not active)
INS1
  AC50: 4.04 µM (active)

## CC(C)C[C@H]1CN=C(Nc2ccccc2)N1CCc1ccc(F)cc1
INS1
  AC50: 64.4 µM (active)

## CC(=O)N1CCc2c(sc(NC(=O)C3CCCCC3)c2C(N)=O)C1
[1]
  EC50: 33.4 µM (active)
[2]
  EC50: 30.1 µM (active)

## Cc1ccc(Sc2cc(C)nc(-c3ccccn3)n2)cc1
[4]
  EC50: 21.1 µM (active)
Streptokinase A
  EC50: > 150 µM (not active)
Streptococcus
  EC50: 49.4 µM (active)
INS1
  AC50: 4 µM (active)

## Cc1ccc(N=C2NC(=O)CS2)cc1
[5]
  EC50: > 260 µM (inactive)

## C/C(=C\C(=O)Nc1cscc1C)C(=O)O
[5]
  EC50: > 260 µM (inactive)

## c1ccc(-c2sc3ccccc3c2-c2ccc(OCCN3CCOCC3)cc2)cc1
[3]
  AC50: 2.28 µM (active)

## CC1(C)CC(=O)/C(=C\c2cccc([N+](=O)[O-])c2)C(C)(C)N1
[5]
  EC50: 18.6 µM (active)

## CC(C)(C)NC(=O)C(c1ccncc1)N(C(=O)Cn1nnc(-c2cccs2)n1)C1CCCCC1 (configuration not stated)
[5]
  EC50: > 260 µM (inactive)

## CCOc1cc(/C=C2\CCCc3c2nc2ccccc2c3C(=O)O)ccc1OC
[5]
  EC50: > 260 µM (inactive)

## Cc1ccc(OCc2ccc(C#N)cc2)c(C(=O)c2cc(C#N)c(=O)n(C3CC3)c2)c1
[5]
  EC50: > 260 µM (inactive)

## Cc1cc(C)c2c3c(sc2n1)C1(CCSCC1)C(C#N)=C(N)O3
[8]
  EC50: 20.3 µM (active)
[9]
  EC50: 14.5 µM (inconclusive)
H4
  EC50: 14.7 µM (active)
[6]
  EC50: 0.118 µM (active)
[7]
  EC50: > 30 µM (not active)

## COc1ccc(-n2c(NNC(C)=O)nc3sc4c(c3c2=O)CCCC4)cc1
[1]
  EC50: > 300 µM (not active)
[2]
  EC50: > 300 µM (not active)

## CCCCn1c(N)c(N(CC(C)C)C(=O)C2CCN(S(=O)(=O)c3ccc(C)c(C)c3)CC2)c(=O)[nH]c1=O
[5]
  EC50: > 260 µM (inactive)

## Cc1ccc(CNc2c(C=O)c(O)nc3ccccc23)cc1
[5]
  EC50: > 260 µM (inactive)

## O=C(NN1C(=O)c2ccccc2NC1c1ccccn1)c1ccc([N+](=O)[O-])cc1 (configuration not stated)
[1]
  EC50: 198 µM (active)
[2]
  EC50: 8.55 µM (active)

## N#Cc1c(-c2ccccc2)cc(-c2ccccc2)nc1SCC(=O)NCC(=O)O
[10]
  EC50: 12.2 µM (active)

## Oc1c2cnnc-2nc(SCc2ccccc2F)n1-c1ccc(Br)cc1
[3]
  AC50: 3.3 µM (active)

## CCc1cccc(NS(=O)(=O)c2ccc3c(c2)NC(=O)C(C)S3)c1 (configuration not stated)
[5]
  EC50: > 260 µM (inactive)

## CN(/N=C/c1cc(Cl)cc(Cl)c1O)C(=S)NC(C)(C)C
[3]
  AC50: 2.5 µM (active)

## CCOC(=O)Cc1nnc(Nc2cccc(C)c2)c2ccccc12
[5]
  EC50: > 260 µM (inactive)

## COC(=O)c1ccccc1-n1cccc1C(=O)NP(=O)(N1CCOCC1)N1CCOCC1
[1]
  EC50: > 300 µM (not active)
[2]
  EC50: > 300 µM (not active)

## O=C(C[n+]1cccc(C(=O)Nc2ccccc2)c1)c1ccc([N+](=O)[O-])cc1
[5]
  EC50: 64.6 µM (active)

## COc1cc(-c2nnc(CSc3nnc(Nc4ccc(C(C)C)cc4)s3)o2)cc(OC)c1OC
[5]
  EC50: 31.8 µM (active)

## O=C(O)C(=O)/C(=C\c1ccc(Cl)cc1)c1ccc2ccccc2n1
[1]
  EC50: > 300 µM (not active)
[2]
  EC50: > 300 µM (not active)

## c1ccc(-c2nc(CSc3n[nH]c(-c4cccs4)n3)cs2)cc1
[5]
  EC50: > 260 µM (inactive)
